This is an account of results in patent publication US20170014352A1, “WATER-DISPERSIBLE AMORPHOUS PARTICLES AND METHOD FOR PREPARING SAME” (The University of Tokyo, priority 2014, published 2017).

Structures can show the parent of a compound that is named as a salt. Where two headings read alike, the source gives them in different places.

Data set [1] in a line: particle size (Z-average, hydrodynamic diameter) and PDI by dynamic light scattering (DLS). Type of data set: physicochemical. The text has this:
The “particle size” herein means an average particle size, and is defined as a particle size (Z-average) measured by use of a dynamic light scattering (Dynamic Light Scattering: DLS) method. The particle size thus measured is also referred to as “hydrodynamic diameter”.
The “polydispersity index (Polydispersity index: PDI)” herein is an index for evaluating the width of a particle size distribution, and is in the range from 0 to 1. A value of 0 represents an ideal suspension without any size distribution. A distribution having a PDI value of 0.1 or less is referred to as “monodispersity”, and on the other hand, a dispersion having a value between 0.1 and 0.3 is considered to have a narrow size distribution. A dispersion having a PDI of more than 0.5 is considered to be polydisperse. The polydispersity index is calculated from the value obtained by use of a dynamic light scattering (Dynamic Light Scattering: DLS) method.
Measurement by a DLS method was performed by use of a laser light scattering apparatus (Zetasizer Nano ZS manufactured by Malvern instruments Ltd.). A scanning electron microscope (SEM) image was obtained by use of Magellan 4001 manufactured by FEI Company. Powder X-ray diffraction was performed by use of SmartLab manufactured by Rigaku Corporation. FDU-1200 manufactured by EYELA was used for a freeze-dryer.

The conditions of data set [2]: cited from earlier work; for logP: measured value described in the literature; for log P: starting organic compound, Examples 9 and 10.
For data set [3] the following is noted: at 25° C.; cited from earlier work.
The mark [4] stands for this setting: Example 6: 100 μM THF solution of compound injected into water, THF distilled off, water dispersion.
The mark [5] stands for this setting: Example 7: water injected into THF solution of compound (concentration 100 W), water dispersion.

The logP is a log measure of how a compound divides between an organic and an aqueous phase. In general, log P refers to a log measure of how a compound divides between an organic and an aqueous phase.

Take `CC(C)CCC[C@@H](C)[C@H]1CC[C@H]2[C@@H]3CC=C4C[C@@H](O)CC[C@]4(C)[C@H]3CC[C@]12C` [Cholesterol, cholesterol]: the PDI is listed as 0.27 in data set [1] (setting [4]) and 0.02 in data set [1] (setting [5]). In addition, the “Particle size (nm)” value in data set [1] (setting [4]) amounted to 228 nm; in data set [1] (setting [5]) it was 165 nm. The logP in data set [2] (Table 1) and in data set [2] (Table 2) was 9.61 each time.
With `COc1ccc(CC(C)NCC(O)c2ccc(O)c(NC=O)c2)cc1` (stereo not shown) [Formoterol fumarate hydrate], in data set [3], the solubility in water is 170 µg/mL. In data set [2], the “log P” value is recorded as 2.0.
`Cc1c(OCC(F)(F)F)ccnc1C[S+]([O-])c1nc2ccccc2[nH]1` (stereo not shown) [Lansoprazole]: the solubility in water result in data set [3] was “less than 0.1 mg/mL”. The log partition coefficient (log P) in data set [2] is on record as 2.58.
For `c1ccc2cc3cc4cc5ccccc5cc4cc3cc2c1` [Pentacene, pentacene], in data set [1] (setting [5]), the PDI is reported as 0.02 and the “Particle size (nm)” value came to 116 nm.
With `c1cc2ccc3cccc4ccc(c1)c2c34` [Pyrene, pyrene], in data set [1] (setting [5]), the PDI was found to be 0.13 and the “Particle size (nm)” value is 120 nm.
`CCCc1nc2c(C)cc(-c3nc4ccccc4n3C)cc2n1Cc1ccc(-c2ccccc2C(=O)O)cc1` [Telmisartan, telmisartan, reference compound]: in data set [1] (setting [5]), the PDI came to 0.34 and the “Particle size (nm)” value is reported as 10 nm. In addition, the lipophilicity (logP) in data set [2] (Table 2) is listed as 6.48.
Take pyrenecarboxylic acid: in data set [1], the PDI stood at 0.14 and the “Particle size (nm)” value is listed as 76 nm.
